# Test results taken from US20170042878A1 (THE GENERAL HOSPITAL CORPORATION, priority 2012, published 2017).
# “Also recorded” adds a separate entry of the source. Where two headings read alike, the source gives them in different places.
# Columns and labels:
# C57BL/6N mice [1] = test: Two-day forced swim test (FST) in mice; type: in vivo, mouse
# Experimental: (§1) Male 10 week C57BL/6N mice (Taconic) acclimated to a holding facility one week prior to testing. A two-day FST paradigm was employed, in which mice were exposed to a 10 minute test in absence of drug, and tested the following day in presence of drug in a 6 minute test. […] All animals were drug naïve and not previously exposed to behavioral testing.
# Male C57BL6N/Tac mice were purchased from Taconic Farms (Germantown, N.Y.) at 10 weeks of age. Mice were housed four mice per cage upon arrival under a 12:12 h light/dark cycle and were allowed to acclimate for approximately one week prior to behavioral procedures. Food and water were provided ad libitum. All procedures followed the National Institutes of Health Guide for the Care and Use of Laboratory Animals, and were approved by the Massachusetts Institute of Technology Animal Care and Use Committee.
# Mice were tested in a two day forced swim test (FST) procedure. On day 1, all mice received mock intraperitoneal vehicle (i.p.) injections to acclimate to the injection procedure and, 30 minutes later, were placed into one of five identical cylindrical chambers (24 cm×15 cm) filled approximately halfway with warm water (26)±2° for 10 minutes with no data collected. On day 2, mice received i.p. injections 30 minutes prior to being placed in a cylinder for a 6 minute session and immobility time was scored automatically (EthoVisionXT; Noldus Information Technology; Wageningen, Netherlands) during the final 4 minutes.
# For all FST behavioral experiments, the time spent immobile was the dependent variable, and data were analyzed by one-way analysis of variance (ANOVA) and Tukey post-hoc comparisons using SPSS v. 18 (IBM).
# depressed patients = details: cited from earlier work
# mice [2] = details: cited from earlier work
# rats [3] = details: cited from earlier work
# BDNF = details: ketamine sub-anesthetic doses; correlated with antidepressant effect; cited from earlier work
# mTOR pathway = details: ketamine 5 and 10 mg/kg i.p., cited from earlier work
# [4] = in vivo; cited from earlier work
# rabbit = details: drugs injected immediately after completion of daily training sessions; cited from earlier work
# [5] = ketamine injection 1 mg/kg; cited from earlier work
# C57BL/6N mice [6] = test: Home cage observation of motor activation after administration, prior to FST; details: scopolamine 0.5 and 1.0 mg/kg i.p.
# Experimental: as §1
# A dose at the low end of this range was selected (3 mg/kg i.p.) and administered to adult male C57BL/6N mice 30 min prior to the FST.
# mice [7] = details: scopolamine single administration 0.1 or 0.2 mg/kg i.p.; P<0.01 or P<0.001; cited from earlier work
# mTOR signaling = details: cited from earlier work
# NMDA receptor 1A = details: rat, in vivo; cited from earlier work
# NMDA receptor 2A = details: rat, in vivo; cited from earlier work
# rats [8] = details: rat, in vivo; cited from earlier work
compound,measurement,setting,value
CNC1(c2ccccc2Cl)CCCCC1=O (stereo not shown) [ketamine],reduction in immobility versus vehicle,"C57BL/6N mice [1]; ketamine 3 mg/kg i.p. 30 min prior to FST, modest and non-significant, FIG. 1",18%
same,effect on FST immobility time versus vehicle,"C57BL/6N mice [1]; ketamine 3 mg/kg i.p. 30 minutes prior to testing, p>0.05, FIG. 1",modest non-significant antidepressant effect; also recorded: did not significantly reduce immobility time
same,persistence of improvement in depression ratings,"depressed patients; ketamine single intravenous infusion 0.5 mg/kg (Zarate et al., 2006)",approximately 1 week
same,time to significant improvement in depression ratings after administration,depressed patients; ketamine single intravenous infusion 0.5 mg/kg,1 to 2 h
same,antidepressant effect in the FST,"mice [2]; ketamine 3 mg/kg i.p., within 30 minutes, mouse models of depression (Autry et al., 2011)",exhibited an antidepressant effect
same,forced swim test immobility time versus vehicle,"rats [3]; ketamine 10 or 15 mg/kg i.p. (Garcia et al., 2008)",reduced forced swim test immobility time
same,forced swim test effect,"rats [3]; ketamine anesthetic dose 80 mg/kg i.p., immediately after treatment (Li et al., 2010)",no effect
same,forced swim test immobility time versus vehicle,"rats [3]; ketamine anesthetic dose 160 mg/kg i.p., tested 3, 7, or 10 days after treatment (Yilmaz et al., 2002)",significantly decreased
same,levels of BDNF in the hippocampus,BDNF,increased levels of BDNF
same,mature dendritic spines of medial PFC pyramidal neurons and serotonin-mediated cortical neurotransmission,mTOR pathway; at 24 hours,concomitant increases
same,levels of pre- and postsynaptic proteins,mTOR pathway; two hours after treatment,increased levels
same,phosphorylation and activation of mTOR pathway molecules in synaptoneurosomes from prefrontal cortex,mTOR pathway; within one hour of treatment,increase phosphorylation and activate several molecules in the mTOR pathway
same,recognition memory aspect of task performance,[4],dose-dependent impairment
same,effect on conditioning of the nictitating membrane response,rabbit,accelerates
same,cerebral vasodilatation,[5],significant cerebral vasodilatation
CN1[C@@H]2C[C@@H](OC(=O)[C@H](CO)c3ccccc3)C[C@H]1[C@@H]1O[C@@H]12 [scopolamine],effect on FST immobility time versus vehicle,"C57BL/6N mice [1]; scopolamine 0.1 mg/kg i.p., p>0.05, FIG. 2",no change in immobility time versus vehicle; also recorded: did not significantly reduce immobility time
same,effect on FST immobility time versus vehicle,"C57BL/6N mice [1]; scopolamine 0.5 mg/kg and 1.0 mg/kg i.p., p<0.05, likely due to non-specific motor activation, FIG. 2",substantially reduced immobility time
same,motor activation in the home cage after administration,C57BL/6N mice [6],noticeably hyperactive; also recorded: visibly hyperactive
same,time after which patients report improvement,"depressed patients; scopolamine 0.004 mg/kg infusion (Furey and Drevets, 2006)",approximately 24 hours
same,clinical outcome in depressed patients,"depressed patients; scopolamine 0.004 mg/kg infusion, assessed 3 days after treatment",clinical improvement
same,immobility times in the tail suspension test versus vehicle,mice [7],decreased immobility times
same,immobility times in the forced swim test versus vehicle,"mice [2]; scopolamine single administration 0.1 or 0.2 mg/kg i.p., both P<0.001",decreased immobility times
same,effect on antidepressant effects of desipramine and nomifensine in the forced swim test,"rats [3]; scopolamine 0.5-1.0 mg/kg i.p., desipramine 20 or 30 mg/kg i.p., nomifensine 2.5 or 5 mg/kg i.p. (Mancinelli et al., 1988)",potentiated the antidepressant effects
same,mTOR signaling,mTOR signaling,rapidly activate mTOR signaling
same,expression of NMDA receptor 1A,NMDA receptor 1A,decrease expression
same,expression of NMDA receptor 2A,NMDA receptor 2A,decrease expression
same,incremental acquisition aspect of task performance,[4],dose x difficulty related impairment
same,recognition memory aspect of task performance,[4],dose x difficulty related impairment
same,effect on conditioning of the nictitating membrane response,rabbit,retards
same,effect on ketamine-induced cerebral vasodilatation,[5],blocked
same,adult neurogenesis,rats [8],suppress adult neurogenesis
